Measured values as given in the supplement of paper PMC8882468.
± gives the standard deviation of the averaged measurements.

Key:
Assay in all cases: CTG-3D luminescence at 96 h relative to day-0 seeding control (ratio to day 0); higher = more growth / less cytotoxicity; PDxO 3D drug screen, 96 h, CTG-3D normalised to day-0 seeding control.
HCI-019 = tested on: HCI-019 (organoid from a triple-negative breast cancer xenograft)
HCI-001 = tested on: HCI-001 (organoid from a triple-negative breast cancer xenograft)
HCI-003.E2 = tested on: HCI-003.E2 (organoid from an ER-positive breast cancer xenograft)
HCI-002 = tested on: HCI-002 (organoid from a triple-negative breast cancer xenograft)
HCI-024 = tested on: HCI-024 (organoid from a breast cancer xenograft)

CS(=O)(=O)c1ccc(C(=O)Nc2ccc(Cl)c(-c3ccccn3)c2)c(Cl)c1 [vismodegib]
CTG-3D luminescence at 96 h
Details | 12.5 pM | 0.00025 µM | 0.005 µM | 0.1 µM | 1 µM | 10 µM | 100 µM | 625 fM
HCI-001, days in culture: 240 | 1.85 | 1.26 | 0.998 | 1.03 | 1.5 | 1.19 | 0.836 | 2.27
HCI-001, days in culture: 260 | 2.49 | 1.08 | 2.27 | 1.74 | 1.57 | 1.91 | 0.909 | 1.99
HCI-001, days in culture: 269 | 1.57 | 1.89 | 1.55 | 1.36 | 1.13 | 1.83 | 0.861 | 1.51
HCI-001, days in culture: 327 | 2.09 | 1.61 | 2.29 | 1.87 | 1.93 | 1.2 | 1.19 | 1.94
HCI-001, days in culture: 346 | 1.82 | 1.38 | 1.23 | 1.34 | 1.47 | 1.65 | 1.35 | 1.34
HCI-001, days in culture: 364 | 1.66 | 1.26 | 1.67 | 1.34 | 1.47 | 1.71 | 1.1 | 1.64
HCI-002, days in culture: 62 | 2.81 | 2.88 | 3.64 | 3.26 | 3.05 | 2.96 | 0.385 | 3.01
HCI-002, days in culture: 82 | 3.27 | 3.52 | 2.41 | 2.65 | 2.51 | 2.14 | 0.287 | 2.86
HCI-002, days in culture: 91 | 2.97 | 2.4 | 2.04 | 2.06 | 1.77 | 2.07 | 0.194 | 2.53
HCI-002, days in culture: 191 | 3.3 | 3.25 | 3.31 | 3.23 | 3.62 | 2.89 | 0.429 | 3.41
HCI-002, days in culture: 209 | 2.66 | 2.86 | 2.57 | 2.3 | 2.77 | 2.31 | 0.207 | 2.71
HCI-002, days in culture: 227 | 4.93 | 4.4 | 3.59 | 4.14 | 3.49 | 4.34 | 0.447 | 5.19
HCI-019, days in culture: 110 | 1.59 | 1.68 | 1.23 | 2.46 | 1.99 | 2.18 | 1.03 | 2.06
HCI-019, days in culture: 131 | 2.17 | 2.54 | 3.59 | 3.93 | 2.82 | 2.53 | 1.56 | 3.4
HCI-019, days in culture: 152 | 3.1 | 2.87 | 2.59 | 1.83 | 2.08 | 1.82 | 0.857 | 1.86
HCI-024, days in culture: 105 | 1.78 | 1.57 | 1.53 | 1.77 | 1.64 | 1.97 | 1.09 | 1.64
HCI-024, days in culture: 122 | 1.39 | 1.99 | 2.14 | 2.07 | 2.27 | 2.75 | 1.23 | 2.04
HCI-024, days in culture: 163 | 1.93 | 2.3 | 1.87 | 2.29 | 2.2 | 2.36 | 1.4 | 2.01

HCI-003.E2
Details | CTG-3D luminescence at 96 h
12.5 pM | 1.92 ± 0.81
0.00025 µM | 2.03 ± 0.61
0.005 µM | 1.93 ± 0.45
0.1 µM | 2.17 ± 0.6
1 µM | 2.08 ± 0.6
10 µM | 1.96 ± 0.75
100 µM | 0.299 ± 0.13
625 fM | 1.94 ± 0.54

CNC(=O)c1cccc(-c2ccc3c(N4CCOC[C@@H]4C)nc(N4CCOC[C@@H]4C)nc3n2)c1 [vistusertib]
CTG-3D luminescence at 96 h
Details | 12.5 pM | 0.00025 µM | 0.005 µM | 0.1 µM | 1 µM | 10 µM | 100 µM | 625 fM
HCI-001, days in culture: 240 | 1.6 | 1.12 | 0.733 | 0.68 | 0.589 | 0.404 | 0.27 | 1.82
HCI-001, days in culture: 260 | 2.82 | 1.1 | 1.62 | 1.31 | 0.501 | 0.89 | 0.406 | 1.23
HCI-001, days in culture: 269 | 1.63 | 1.62 | 1.55 | 1.03 | 0.524 | 0.533 | 0.378 | 1.6
HCI-001, days in culture: 327 | 1.63 | 1.59 | 1.68 | 1.5 | 1.09 | 0.485 | 0.721 | 1.93
HCI-001, days in culture: 346 | 1.29 | 1.31 | 1.14 | 0.926 | 0.641 | 0.549 | 0.566 | 1.28
HCI-001, days in culture: 364 | 1.51 | 1.3 | 1.38 | 0.795 | 0.495 | 0.606 | 0.601 | 1.78
HCI-002, days in culture: 62 | 2.66 | 2.61 | 3.41 | 2.32 | 1.07 | 0.702 | 0.277 | 2.99
HCI-002, days in culture: 82 | 3.06 | 2.8 | 2.5 | 2.33 | 1.07 | 0.582 | 0.259 | 2.63
HCI-002, days in culture: 91 | 3.62 | 3.61 | 3.38 | 2.8 | 1.19 | 0.884 | 0.482 | 3.86
HCI-002, days in culture: 191 | 2.7 | 2.8 | 3.06 | 2.32 | 1.41 | 0.774 | 0.426 | 2.78
HCI-002, days in culture: 209 | 2.32 | 2.49 | 2.32 | 2.03 | 0.917 | 0.345 | 0.219 | 2.62
HCI-002, days in culture: 227 | 5.65 | 5.55 | 5.27 | 3.89 | 1.39 | 1.12 | 0.394 | 5.47
HCI-019, days in culture: 110 | 1.84 | 1.95 | 1.82 | 1.67 | 0.591 | 0.882 | 0.492 | 2.38
HCI-019, days in culture: 131 | 2.64 | 4.03 | 2.46 | 2.64 | 0.938 | 1.24 | 0.736 | 3.83
HCI-019, days in culture: 152 | 2.51 | 2.65 | 3.11 | 1.64 | 0.846 | 0.759 | 0.555 | 2.52
HCI-024, days in culture: 105 | 1.75 | 1.79 | 1.36 | 1.28 | 0.65 | 0.778 | 0.554 | 1.79
HCI-024, days in culture: 122 | 2.25 | 2.36 | 2.05 | 1.84 | 0.987 | 1.07 | 0.813 | 2.77
HCI-024, days in culture: 163 | 1.9 | 2.22 | 1.73 | 2.31 | 1.19 | 0.949 | 0.662 | 1.95

HCI-003.E2
Details | CTG-3D luminescence at 96 h
12.5 pM | 2.24 ± 0.71
0.00025 µM | 2.07 ± 0.48
0.005 µM | 2.3 ± 0.51
0.1 µM | 1.4 ± 0.36
1 µM | 0.0994 ± 0.037
10 µM | 0.0512 ± 0.022
100 µM | 0.0137 ± 0.015
625 fM | 2.1 ± 0.35
